Measured values reported in patent US9908870B2, “Crystalline form of a benzimidazole derivative and a preparation method thereof” (CJ HEALTHCARE CORPORATION, priority 2015, dated 2018).
Values joined by “and” are separate entries in the source; they are usually repeats but may differ in a detail not shown here. Equal entries are not always repeated.

What was measured:
Assay type in all cases: physicochemical
[1] = Hygroscopicity test
Text: Compounds with low hygroscopicity are advantageous in preparing formulations, and also are advantageous for storage. Additionally, compounds with high hygroscopicity are not advantageous in that they are difficult to formulate, and reproducible results may hardly be obtained even though formulations can be successfully achieved.

[2] = Crystal stability test under severe stability testing conditions
Experimental: Finally, a crystal stability test was performed to examine the stability of the crystalline form itself, and the results are shown in Table 4 below.

[3] = Stability test under a photo-stressed condition
[4] = Static-electricity inducibility test (bulk density, tapped density, Carr's Index); conditions: for CI (Carr's Index): CI=100×(1−BD/TD), ≦30 value - good flowability
[5] = after 4 weeks at 60±2° C., 80±5% RH
[6] = after 4 weeks, photo-stressed condition
[7] = after 4 weeks, photo-stressed condition (1,200,000 lux or higher and 200 W/m^2 or higher)

SMILES | Hygroscopicity ([1]; 33% RH, after 4 weeks) | Hygroscopicity ([1]; 75% RH, after 4 weeks) | Hygroscopicity ([1]; 93% RH, after 4 weeks) | Content of impurities (related compounds) [3, 6] [%] | Appearance [3, 7] | Appearance ([3]; initial stage) | Content of impurities (related compounds) ([3]; initial stage) [%] | BD (bulk density) [4] | TD (tapped density) [4] | CI (Carr's Index) [4] | further results
Cc1nc2c(O[C@H]3CCOc4cc(F)cc(F)c43)cc(C(=O)N(C)C)cc2[nH]1 [Crystalline form A, 4-[((4S)-5,7-difluoro-3,4-dihydro-2H-chromen-4-yl)oxy]-N,N,2-trimethyl-1H-benzimidazole-6-carboxamide] | 0.17 | 0.20 | 0.28 | 0.10 | white | white | 0.10 | 0.34 g/mL and 0.32 g/mL | 0.45 g/mL | 24.44% and 28.89% | Hygroscopicity values ([1]; stored at 33%, 75% and 93% relative humidity for 4 weeks): below 0.3; Crystalline form [2, 5]: crystalline form A; DSC [2, 5]: 223 °C; Crystalline form ([2]; initial stage): crystalline form A; DSC ([2]; initial stage): 223 °C; Optical purity [3, 6]: 100%; Content of impurities (related compounds) ([3]; after 4 weeks, photo-stressed condition, listed as crystalline form A): ≤ 0.1%; Content of impurities (related compounds) ([3]; initial stage, listed as crystalline form A): ≤ 0.1%
Cc1nc2c(O[C@H]3CCOc4cc(F)cc(F)c43)cc(C(=O)N(C)C)cc2[nH]1 [Non-crystalline form, 4-[((4S)-5,7-difluoro-3,4-dihydro-2H-chromen-4-yl)oxy]-N,N,2-trimethyl-1H-benzimidazole-6-carboxamide] | 1.90 | 4.09 | 5.25 | 0.49 | yellow | white | 0.16 | 0.23 g/mL and 0.22 g/mL | 0.39 g/mL and 0.38 g/mL | 41.02% and 42.11% | Hygroscopicity ([1]; initial stage): 1.32; Increase in content of related compounds ([3]; after 4-week photoexposure vs initial): ≥ 3 fold; Increase in content of optical isomers ([3]; after 4 weeks photo-stressed condition vs initial): 10 fold; Content of optical isomers [3, 6]: 0.47%; Content of optical isomers ([3]; initial stage): 0.04%; Content of impurities (related compounds) ([3]; initial stage, listed as non-crystalline form): 0.16%
